Assay results: patent US20110293720A1, “PROGESTIN-CONTAINING DRUG DELIVERY SYSTEM” (BAYER SCHERING PHARMA AKTIENGESELLSCHAFT, priority 2008, published 2011)

Assay: Particle size distribution (d50/d70/d90, volume distribution, e.g. laser diffraction)
Type: physicochemical
Settings: micronized active ingredient before coating
Excerpt: When used herein, the term “d90 particle size” is intended to mean that the particle size distribution is so that at least 90% of the particles have a particle diameter of less than the specified value, calculated from the volume distribution curve under the presumption of spherical particles. In a similar way, the term “d50 particle size” is intended to mean that the particle size distribution is so that at least 50% of the particles have a particle diameter of less than the specified value, calculated from the volume distribution curve under the presumption of spherical particles.
Therefore, it is important to note that whenever the terms “particle size”, “particle size distribution”, “particle diameter”, “d90”, “d50”, etc., are used herein it should be understood that the specific values or ranges used in connection therewith are always meant to be determined from the volume distribution curve under the presumption of spherical particles. The particle size distribution may be determined by various techniques, e.g. laser diffraction, and will be known to the person skilled in the art. […] The particle size distribution of the particles comprising the progestin and the protective agent, when incorporated in the wafer, may be determined by dissolving the film forming matrix, separation of the protected particles, and drying the protected particles. […]

What does the source list for `C[C@]12CCC(=O)C=C1[C@@H]1C[C@@H]1[C@H]1[C@@H]3[C@@H]4C[C@@H]4[C@@]4(CCC(=O)O4)[C@@]3(C)CC[C@@H]12` [drospirenone]?
d50: 2.2 μm; d90: 4.8 μm
